In patent publication US20250163104A1, “MACROCYCLIC IMMUNOMODULATORS” (priority 2021, published 2025) one finds IC50 data, which are given here for 14 compounds.

Where two headings read alike, the source gives them in different places. *1 amine or outer side, *2 acyl side, *3 side chain or, on linkers, in order; H or OH if unused. Where a SMILES comes first, the peptide text is derived from it. Bridges are numbered along the chain shown (N, C = ends). [ ]: non-standard residue; d: D form. The star is where a group is joined. ξ: configuration not given here. Phe(3-CF3) = N[C@@H](Cc1cccc(C(F)(F)F)c1)C(=O)O; Ala(morpholin-4-yl) = N[C@@H](CN1CCOCC1)C(=O)O; Phe(4-COOH) = N[C@@H](Cc1ccc(C(=O)O)cc1)C(=O)O; X8 = O=C([C@H](Cc1ccc2ccncc2c1)N[*:1])[*:2]; Bip = N[C@@H](Cc1ccc(-c2ccccc2)cc1)C(=O)O; Phe(3-Cl) = N[C@@H](Cc1cccc(Cl)c1)C(=O)O; Phe(3-Me) = Cc1cccc(C[C@H](N)C(=O)O)c1; Phe(4-F) = N[C@@H](Cc1ccc(F)cc1)C(=O)O; Val(3-OH) = CC(C)(O)[C@H](N)C(=O)O; 4Pal = N[C@@H](Cc1ccncc1)C(=O)O; 2Thi = N[C@@H](Cc1cccs1)C(=O)O; Cha = N[C@@H](CC1CCCCC1)C(=O)O; Cit = NC(=O)NCCC[C@H](N)C(=O)O; Ile(3ξ) = CCC(C)[C@H](N)C(=O)O; dDab = NCC[C@@H](N)C(=O)O; Carboxymethyl = O=C(O)C*; Orn = NCCC[C@H](N)C(=O)O; Dab = NCC[C@H](N)C(=O)O; Dap = NC[C@H](N)C(=O)O

This assay addresses T1, human PD-1 / PD-L1-Ig binding on Jurkat cell line over-expressing human PD-1 (Jurkat-PD-1) (Homo sapiens, UniProt Q15116).
T1 construct: expressed in transfected cells; host or cells: Jurkat
Nature of the assay: Jurkat-PD-1 Cell Binding High-Content Screening Assay (CBA). It is filed as cell-based. The method in brief: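 Compounds were preincubated with Jurkat-hPD-1 cells in DMEM plus 10% fetal calf serum for 2 h at 37° C. Phycoerythrin-labeled PD-L1-Ig (20 nM final) was then added for 1 hour. Cells were fixed in 4% paraformaldehyde with Hoechst 33342, and bound fluorescence was quantified by high-content imaging.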

The mark [1] stands for this setting: Jurkat-PD-1 cells, PE-labeled PD-L1-Ig 20 nM final; read-out: Jurkat HPD1_PDL1 IC50.

T1 sequence (Q15116 25-288): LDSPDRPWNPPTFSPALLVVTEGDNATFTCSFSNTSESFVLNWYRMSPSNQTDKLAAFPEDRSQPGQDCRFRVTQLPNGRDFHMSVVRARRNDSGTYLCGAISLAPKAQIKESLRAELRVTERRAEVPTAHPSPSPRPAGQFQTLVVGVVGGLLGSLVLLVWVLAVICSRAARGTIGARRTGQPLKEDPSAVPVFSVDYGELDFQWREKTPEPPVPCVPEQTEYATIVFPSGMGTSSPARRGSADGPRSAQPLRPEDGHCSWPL

For orientation: IC50 means the concentration at which inhibition is half-maximal. Take `CC(C)C[C@@H]1NC(=O)[C@H](CC(N)=O)NC(=O)[C@@H](CC(C)C)NC(=O)[C@H](CN)NC(=O)[C@H](C(C)C)NC(=O)[C@H](Cc2ccc(-c3ccccc3)cc2)NC(=O)[C@H](C(C)C)NC(=O)[C@H](Cc2c[nH]c3ccccc23)NC(=O)[C@H](CC(=O)O)NC(=O)[C@H](Cc2ccncc2)NC(=O)[C@H](Cc2ccc(OCC(=O)O)cc2)NC(=O)CSC[C@@H](C(=O)NCC(N)=O)NC(=O)[C@H](CO)NC(=O)[C@H](C(C)C)NC1=O` [Compound 1290] ({CH2CO}-Y(Carboxymethyl)[4Pal]DWV[Bip]V[Dap][dL]NLVSCG-NH2; thioether N-14): the concentration for half-maximal inhibition (IC50) under setting [1] is 50.6 nM.

With `Cc1cccc(C[C@@H]2NC(=O)[C@H](CC(=O)O)NC(=O)[C@H](Cc3ccc(OCC(=O)O)cc3)NC(=O)[C@H](CN)NC(=O)CSC[C@@H](C(=O)N[C@@H](C)C(N)=O)NC(=O)[C@H](CN)NC(=O)[C@H](C(C)C)NC(=O)[C@H](CC3CCCCC3)NC(=O)[C@H](CCN)NC(=O)[C@@H](CC(C)C)NC(=O)[C@H](CCCN)NC(=O)[C@H](C(C)C)NC(=O)[C@H](Cc3ccc(-c4ccccc4)cc3)NC(=O)[C@H](C(C)C)NC2=O)c1` [Compound 1753] ({CH2CO}-[Dap]Y(Carboxymethyl)D[Phe(3-Me)]V[Bip]V[Orn][dL][Dab][Cha]V[Dap]CA-NH2; thioether N-14), under setting [1], the IC50 worked out at 5.1 nM. The same measure, in the same setting: the result for `Cc1cccc(C[C@@H]2NC(=O)[C@H](CC(=O)O)NC(=O)[C@H](Cc3ccc(OCC(=O)O)cc3)NC(=O)[C@H](Cc3ccncc3)NC(=O)CSC[C@@H](C(=O)N[C@@H](CCN)C(N)=O)NC(=O)[C@H](CO)NC(=O)[C@H](C(C)(C)O)NC(=O)[C@H](CC3CCCCC3)NC(=O)[C@H](CCN)NC(=O)[C@@H](CC(C)C)NC(=O)[C@H](CCC(N)=O)NC(=O)[C@H](Cc3ccc(OCC(=O)O)cc3)NC(=O)[C@H](Cc3ccc(-c4ccccc4)cc3)NC(=O)[C@H](Cc3ccc(OCC(=O)O)cc3)NC2=O)c1` [Compound 2642] ({CH2CO}-[4Pal]Y(Carboxymethyl)D[Phe(3-Me)]Y(Carboxymethyl)[Bip]Y(Carboxymethyl)Q[dL][Dab][Cha][Val(3-OH)]SC[Dab]-NH2; thioether N-14) reads 3.5 nM; that for `CC(C)C[C@H]1NC(=O)[C@H](CCCN)NC(=O)[C@H](CCCNC(N)=O)NC(=O)[C@H](Cc2ccc(-c3ccccc3)cc2)NC(=O)[C@H](C(C)C)NC(=O)[C@H](Cc2c[nH]c3ccccc23)NC(=O)[C@H](CC(=O)O)NC(=O)[C@H](Cc2cccc(Cl)c2)NC(=O)[C@H](CN)NC(=O)CSC[C@@H](C(=O)N[C@@H](C)C(N)=O)NC(=O)[C@H]([C@@H](C)O)NC(=O)[C@H](C(C)C)NC(=O)[C@H](CC2CCCCC2)NC(=O)[C@H](CCN)NC1=O` [Compound 2111] ({CH2CO}-[Dap][Phe(3-Cl)]DWV[Bip][Cit][Orn][dL][Dab][Cha]VTCA-NH2; thioether N-14), 33 nM. Take `CCC(C)[C@@H]1NC(=O)[C@H](Cc2ccc(-c3ccccc3)cc2)NC(=O)[C@H](CC(C)C)NC(=O)[C@H](Cc2c[nH]c3ccccc23)NC(=O)[C@H](CC(=O)O)NC(=O)[C@H](Cc2ccc(OCC(=O)O)cc2)NC(=O)[C@H](Cc2ccncc2)NC(=O)CSC[C@@H](C(=O)N[C@@H](CC(N)=O)C(=O)O)NC(=O)[C@H](CO)NC(=O)[C@H](C(C)C)NC(=O)[C@H](CC(C)C)NC(=O)[C@H](CCN)NC(=O)[C@@H](CC(C)C)NC(=O)[C@H](CCCN)NC1=O` (stereo partly drawn) [Compound 2582] ({CH2CO}-[4Pal]Y(Carboxymethyl)DWL[Bip][Ile(3ξ)][Orn][dL][Dab]LVSCN-OH; thioether N-14): for the setting “read-out: Jurkat HPD1_PDL1 IC50; Jurkat-PD-1 cells, PE-labeled PD-L1-Ig 20 nM final”, the concentration for half-maximal inhibition (IC50) stood at 9.8 nM. For the compound `CC(C)C[C@@H]1NC(=O)[C@H](Cc2c[nH]c3ccccc23)NC(=O)[C@H](CC(=O)O)NC(=O)[C@H](Cc2ccc(O)cc2)NC(=O)[C@H](Cc2ccccc2)NC(=O)CSC[C@@H](C(=O)NCC(N)=O)NC(=O)[C@H](CO)NC(=O)[C@H](C(C)C)NC(=O)[C@H](CC(C)C)NC(=O)[C@H](CC(N)=O)NC(=O)[C@@H](C)NC(=O)[C@H](CN)NC(=O)[C@H](C(C)C)NC(=O)[C@H](Cc2ccc(-c3ccccc3)cc2)NC1=O` [Compound 1077] ({CH2CO}-FYDWL[Bip]V[Dap][dA]NLVSCG-NH2; thioether N-14), under setting [1], the IC50 is 46.7 nM. For the compound `Cc1cccc(C[C@@H]2NC(=O)[C@H](CC(=O)O)NC(=O)[C@H](Cc3ccc(OCC(=O)O)cc3)NC(=O)[C@H](Cc3ccc(F)cc3)NC(=O)CSC[C@@H](C(=O)N[C@H](CCN)C(N)=O)NC(=O)[C@H](CCC(=O)O)NC(=O)[C@H](C(C)(C)O)NC(=O)[C@H](CC3CCCCC3)NC(=O)[C@H](CCN)NC(=O)[C@@H](CC(C)C)NC(=O)[C@H](CCCN)NC(=O)[C@H](Cc3ccc(OCC(=O)O)cc3)NC(=O)[C@H](Cc3ccc(-c4ccccc4)cc3)NC(=O)[C@H](Cc3ccc(OCC(=O)O)cc3)NC2=O)c1` [Compound 2676] ({CH2CO}-[Phe(4-F)]Y(Carboxymethyl)D[Phe(3-Me)]Y(Carboxymethyl)[Bip]Y(Carboxymethyl)[Orn][dL][Dab][Cha][Val(3-OH)]EC[dDab]-NH2; thioether N-14), the concentration for half-maximal inhibition (IC50) under setting [1] amounted to 8.5 nM. Still for that read-out and setting: the result for `CC(C)C[C@H]1NC(=O)[C@H](CCCN)NC(=O)[C@H](Cc2ccc(C(=O)O)cc2)NC(=O)[C@H](Cc2ccc(-c3ccccc3)cc2)NC(=O)[C@H](Cc2cccs2)NC(=O)[C@H](Cc2cccc(C(F)(F)F)c2)NC(=O)[C@H](CC(=O)O)NC(=O)[C@H](Cc2ccc(C(=O)O)cc2)NC(=O)[C@H](CN2CCOCC2)NC(=O)CSC[C@@H](C(=O)N[C@@H](CCN)C(N)=O)NC(=O)[C@H](CCC(=O)O)NC(=O)[C@H](C(C)C)NC(=O)[C@H](CC2CCCCC2)NC(=O)[C@H](CCN)NC1=O` [Example 2749] ({CH2CO}-[Ala(morpholin-4-yl)][Phe(4-COOH)]D[Phe(3-CF3)][2Thi][Bip][Phe(4-COOH)][Orn][dL][Dab][Cha]VEC[Dab]-NH2; thioether N-14) reads 1.9 nM; that for `Cc1cccc(C[C@@H]2NC(=O)[C@H](CC(=O)O)NC(=O)[C@H](Cc3ccc(OCC(=O)O)cc3)NC(=O)[C@H](CN)NC(=O)CSC[C@@H](C(=O)N[C@@H](C)C(=O)NCc3cnc(C)cn3)NC(=O)[C@H]([C@@H](C)O)NC(=O)[C@H](C(C)C)NC(=O)[C@H](CC3CCCCC3)NC(=O)[C@H](CCN)NC(=O)[C@@H](CC(C)C)NC(=O)[C@H](CCCN)NC(=O)[C@H](CCCNC(N)=O)NC(=O)[C@H](Cc3ccc(-c4ccccc4)cc3)NC(=O)[C@H](C(C)C)NC2=O)c1` [Compound 2006], 14.8 nM; that for `CC(C)C[C@@H]1NC(=O)[C@H](Cc2c[nH]c3ccccc23)NC(=O)[C@H](CC(=O)O)NC(=O)[C@H](Cc2ccc(O)cc2)NC(=O)[C@H](Cc2ccccc2)NC(=O)CSC[C@@H](C(=O)N[C@@H](C)C(N)=O)NC(=O)[C@H](CO)NC(=O)[C@H](C(C)C)NC(=O)[C@H](CC(C)C)NC(=O)[C@H](CCN)NC(=O)[C@@H](C)NC(=O)[C@H](CCCN)NC(=O)[C@H](C(C)C)NC(=O)[C@H](Cc2ccc(-c3ccccc3)cc2)NC1=O` [Compound 1095] ({CH2CO}-FYDWL[Bip]V[Orn][dA][Dab]LVSCA-NH2; thioether N-14), 146 nM.

For the compound `CC[C@H](C)[C@@H]1NC(=O)[C@H](Cc2ccc(-c3ccccc3)cc2)NC(=O)[C@H](C(C)C)NC(=O)[C@H](Cc2c[nH]c3ccccc23)NC(=O)[C@H](CC(=O)O)NC(=O)[C@H](Cc2ccc(O)cc2)NC(=O)[C@H](Cc2ccccc2)NC(=O)CSC[C@@H](C(=O)N[C@@H](C)C(N)=O)NC(=O)[C@H]([C@@H](C)O)NC(=O)[C@H](C(C)C)NC(=O)[C@H](CC2CCCCC2)NC(=O)[C@H](CCCNC(=N)N)NC(=O)[C@@H](CC(C)C)NC(=O)[C@H](CCCN)NC1=O` [Compound 1148] ({CH2CO}-FYDWV[Bip]I[Orn][dL]R[Cha]VTCA-NH2; thioether N-14), the IC50 under setting [1] amounted to 51 nM. Still for that read-out and setting: the result for `CC(C)C[C@@H]1NC(=O)[C@H](Cc2c[nH]c3ccccc23)NC(=O)[C@H](CC(=O)O)NC(=O)[C@H](Cc2ccc(OCC(=O)O)cc2)NC(=O)[C@H](CN)NC(=O)CSC[C@@H](C(=O)NCC(N)=O)NC(=O)[C@H](CO)NC(=O)[C@H](C(C)C)NC(=O)[C@H](CC(C)C)NC(=O)[C@H](CCN)NC(=O)[C@@H](CC(C)C)NC(=O)[C@H](CCCN)NC(=O)[C@H](C(C)C)NC(=O)[C@H](Cc2ccc(-c3ccccc3)cc2)NC1=O` [Compound 1257] ({CH2CO}-[Dap]Y(Carboxymethyl)DWL[Bip]V[Orn][dL][Dab]LVSCG-NH2; thioether N-14) reads 5.6 nM; that for `CC(C)C[C@H]1NC(=O)[C@H](CCCN)NC(=O)[C@H](CCC(=O)O)NC(=O)[C@H](Cc2ccc(-c3ccccc3)cc2)NC(=O)[C@H](C(C)C)NC(=O)[C@H](Cc2ccc3ccncc3c2)NC(=O)[C@H](CC(=O)O)NC(=O)[C@H](Cc2ccc(OCC(=O)O)cc2)NC(=O)[C@H](CN)NC(=O)CSC[C@@H](C(=O)N[C@@H](C)C(N)=O)NC(=O)[C@H]([C@@H](C)O)NC(=O)[C@H](C(C)C)NC(=O)[C@H](CC2CCCCC2)NC(=O)[C@H](CCN)NC1=O` [Compound 2144] ({CH2CO}-[Dap]Y(Carboxymethyl)D[X8]V[Bip]E[Orn][dL][Dab][Cha]VTCA-NH2; thioether N-14), 785 nM. On to `CC[C@H](C)[C@@H]1NC(=O)[C@H](Cc2ccc(-c3ccccc3)cc2)NC(=O)[C@H](C(C)C)NC(=O)[C@H](Cc2c[nH]c3ccccc23)NC(=O)[C@H](CC(=O)O)NC(=O)[C@H](Cc2ccc(O)cc2)NC(=O)[C@H](Cc2ccccc2)NC(=O)CSC[C@@H](C(=O)N[C@@H](C)C(N)=O)NC(=O)[C@H]([C@@H](C)O)NC(=O)[C@H](C(C)C)NC(=O)[C@H](CC(C)C)NC(=O)[C@H](CCCNC(=N)N)NC(=O)[C@@H](CC(C)C)NC(=O)[C@H](CCCN)NC1=O` [Compound 1144] ({CH2CO}-FYDWV[Bip]I[Orn][dL]RLVTCA-NH2; thioether N-14), for which, under setting [1], the IC50 was 19.2 nM.
